Source: US9409916B2, “Piperidinone carboxamide spirohydantoin CGRP receptor antagonists” (Merck Sharp & Dohme Corp., priority 2011, dated 2016)

What follows are molecules tested against T1, recombinant human CL receptor/RAMP1 (Homo sapiens, UniProt O60894+Q16602) (assay: Recombinant receptor binding assay (125I-hCGRP)). Details: membranes of HEK 293 cells expressing human CL receptor/RAMP1, 10 pM 125I-hCGRP.
T1 construct: expressed in transfected cells; membranes
Method: RECOMBINANT RECEPTOR: Human CL receptor (Genbank accession number L76380) was subcloned into the expression vector pIREShyg2 (BD Biosciences Clontech) as a 5′NheI and 3′ PmeI fragment. Human RAMP1 (Genbank accession number AJ001014) was subcloned into the expression vector pIRESpuro2 (BD Biosciences Clontech) as a 5′NheI and 3′NotI fragment. HEK 293 cells (human embryonic kidney cells; ATCC #CRL-1573) were cultured in DMEM with 4.5 g/L glucose, 1 mM sodium pyruvate and 2 mM glutamine supplemented with 10% fetal bovine serum (FBS), 100 units/mL penicillin and 100 μg/mL streptomycin, and maintained at 37° C. and 95% humidity. Cells were subcultured by treatment with 0.25% trypsin with 0.1% EDTA in HBSS. Stable cell line generation was accomplished by co-transfecting 10 μg of DNA with 30 μg Lipofectamine 2000 (Invitrogen) in 75 cm^2 flasks. CL receptor and RAMP1 expression constructs were co-transfected in equal amounts. Twenty-four hours after transfection the cells were diluted and selective medium (growth medium+300 μg/mL hygromycin and 1 μg/mL puromycin) was added the following day. A clonal cell line was generated by single cell deposition utilizing a FACS Vantage SE (Becton Dickinson). Growth medium was adjusted to 150 μg/mL hygromycin and 0.5 μg/mL puromycin for cell propagation.
RECOMBINANT RECEPTOR BINDING ASSAY: Cells expressing recombinant human CL receptor/RAMP1 were washed with PBS and harvested in harvest buffer containing 50 mM HEPES, 1 mM EDTA and Complete™ protease inhibitors (Roche). The cell suspension was disrupted with a laboratory homogenizer and centrifuged at 48,000 g to isolate membranes. The pellets were resuspended in harvest buffer plus 250 mM sucrose and stored at −70° C. For binding assays, 20 μg of membranes were incubated in 1 mL binding buffer (10 mM HEPES, pH 7.4, 5 mM MgCl2, and 0.2% BSA) for 3 h at room temperature containing 10 pM ^125I-hCGRP (GE Healthcare) and antagonist. The assay was terminated by filtration through 96-well GFB glass fiber filter plates (PerkinElmer) that had been blocked with 0.05% polyethyleneimine. […]

T1 sequence (Q16602 23-461): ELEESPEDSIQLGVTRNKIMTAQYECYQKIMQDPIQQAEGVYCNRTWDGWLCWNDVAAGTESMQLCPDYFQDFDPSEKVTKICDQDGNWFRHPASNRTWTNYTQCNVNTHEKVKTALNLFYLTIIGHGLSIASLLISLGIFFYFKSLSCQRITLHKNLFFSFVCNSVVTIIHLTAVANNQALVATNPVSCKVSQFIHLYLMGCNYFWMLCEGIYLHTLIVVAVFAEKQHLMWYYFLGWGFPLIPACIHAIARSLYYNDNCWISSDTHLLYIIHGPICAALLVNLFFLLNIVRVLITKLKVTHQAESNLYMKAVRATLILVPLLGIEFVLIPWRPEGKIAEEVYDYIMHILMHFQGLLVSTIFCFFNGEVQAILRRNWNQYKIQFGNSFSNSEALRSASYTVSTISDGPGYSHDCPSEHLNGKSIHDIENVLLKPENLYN
T1 sequence (O60894 27-148): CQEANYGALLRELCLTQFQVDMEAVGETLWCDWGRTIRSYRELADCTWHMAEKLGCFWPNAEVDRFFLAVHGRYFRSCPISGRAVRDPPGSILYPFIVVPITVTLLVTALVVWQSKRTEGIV

SMILES | Ki
C[C@@H]1[C@H](c2c(F)ccc(F)c2F)C[C@H](NC(=O)c2cnc3c(c2)C[C@@]2(C3)C(=O)NC(=O)N2C)C(=O)N1CC(F)(F)F [Example 1, (6R)-3′-Methyl-N-[(3S,5S,6R)-6-methyl-2-oxo-1-(2,2,2-trifluoroethyl)-5-(2,3,6-trifluorophenyl)piperidin-3-yl]-2′,5′-dioxo-5,7-dihydrospiro[cyclopenta[b]pyridine-6,4′-imidazolidine]-3-carboxamide] | 61 pM
C[C@@H]1[C@H](c2c(F)c(F)cc(F)c2F)C[C@H](NC(=O)c2cnc3c(c2)C[C@@]2(C3)C(=O)NC(=O)N2C)C(=O)N1CC(F)(F)F [Example 2, (6R)-3′-Methyl-N-[(3S,5S,6R)-6-methyl-2-oxo-1-(2,2,2-trifluoroethyl)-5-(2,3,5,6-tetrafluorophenyl)piperidin-3-yl]-2′,5′-dioxo-5,7-dihydrospiro[cyclopenta[b]pyridine-6,4′-imidazolidine]-3-carboxamide] | 59 pM
C[C@@H]1[C@H](c2cc(F)cc(F)c2F)C[C@H](NC(=O)c2cnc3c(c2)C[C@@]2(C3)C(=O)NC(=O)N2C)C(=O)N1CC(F)(F)F [Example 3] | 280 pM
